In PubChem BioAssay AID2060885 (Molecular Pharmacology Branch, DTP, NCI, 2025):
pIC50: −log10 of the molar value.

Test system: NCI-H23 complex spheroids with HUVEC/MSC, viability
Assay: Anticancer human tumor NCI-H23 cell line growth inhibition [RAS];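 also: spheroids exposed to compound for 7 days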;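 as to viability, T/C: 100% = DMSO vehicle control viability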
Conditions: for pIC50: curve of first compound; for viability, T/C: stronger effect = lower value
How it was run: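 Tumour cells grown as complex spheroids with HUVEC endothelial cells and mesenchymal stem cells, treated with RAS pathway inhibitor combinations. Each agent spans half-log steps from near clinical Cmax, or 10 microM where Cmax is unknown.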

SMILES: CCc1c2c(nc3ccc(O)cc13)-c1cc3c(c(=O)n1C2)COC(=O)[C@]3(O)CC + C=CC(=O)N1CCN(c2nc(OCC3CCCN3C)nc3c(F)c(-c4nc(N)cc(C)c4C(F)(F)F)c(Cl)cc23)C(C)C1
- pIC50 (second compound 0.00316 µM): > 9.02
- pIC50 (second compound 0.01 µM): > 9.02
- pIC50 (second compound 0.0316 µM): > 9.02
- pIC50 (second compound 0.1 µM): > 9.02
- pIC50 (second compound 0.316 µM): > 9.02
- pIC50 (second compound 1 µM): > 9.02
- viability, T/C (second compound 0.00316 µM, first compound 0.000949 µM): 41.6%
- viability, T/C (second compound 0.00316 µM, first compound 0.003 µM): 33.6%
- viability, T/C (second compound 0.00316 µM, first compound 0.00949 µM): 11.7%
- viability, T/C (second compound 0.00316 µM, first compound 0.03 µM): 3.8%
- viability, T/C (second compound 0.00316 µM, first compound 0.0949 µM): 2.71%
- viability, T/C (second compound 0.00316 µM, first compound 0.3 µM): 2.26%
- viability, T/C (second compound 0.01 µM, first compound 0.000949 µM): 40.6%
- viability, T/C (second compound 0.01 µM, first compound 0.003 µM): 26%
- viability, T/C (second compound 0.01 µM, first compound 0.00949 µM): 8.37%
- viability, T/C (second compound 0.01 µM, first compound 0.03 µM): 3.98%
- viability, T/C (second compound 0.01 µM, first compound 0.0949 µM): 2.14%
- viability, T/C (second compound 0.01 µM, first compound 0.3 µM): 1.54%
- viability, T/C (second compound 0.0316 µM, first compound 0.000949 µM): 33.3%
- viability, T/C (second compound 0.0316 µM, first compound 0.003 µM): 22.2%
- viability, T/C (second compound 0.0316 µM, first compound 0.00949 µM): 9.5%
- viability, T/C (second compound 0.0316 µM, first compound 0.03 µM): 4.43%
- viability, T/C (second compound 0.0316 µM, first compound 0.0949 µM): 2.52%
- viability, T/C (second compound 0.0316 µM, first compound 0.3 µM): 1.84%
- viability, T/C (second compound 0.1 µM, first compound 0.000949 µM): 32.5%
- viability, T/C (second compound 0.1 µM, first compound 0.003 µM): 19.6%
- viability, T/C (second compound 0.1 µM, first compound 0.00949 µM): 6.47%
- viability, T/C (second compound 0.1 µM, first compound 0.03 µM): 3.28%
- viability, T/C (second compound 0.1 µM, first compound 0.0949 µM): 2.14%
- viability, T/C (second compound 0.1 µM, first compound 0.3 µM): 2.49%
- viability, T/C (second compound 0.316 µM, first compound 0.000949 µM): 27.8%
- viability, T/C (second compound 0.316 µM, first compound 0.003 µM): 17.5%
- viability, T/C (second compound 0.316 µM, first compound 0.00949 µM): 7.44%
- viability, T/C (second compound 0.316 µM, first compound 0.03 µM): 3.62%
- viability, T/C (second compound 0.316 µM, first compound 0.0949 µM): 2.47%
- viability, T/C (second compound 0.316 µM, first compound 0.3 µM): 3.05%
- viability, T/C (second compound 1 µM, first compound 0.000949 µM): 25.9%
- viability, T/C (second compound 1 µM, first compound 0.003 µM): 21.2%
- viability, T/C (second compound 1 µM, first compound 0.00949 µM): 8.12%
- viability, T/C (second compound 1 µM, first compound 0.03 µM): 4.94%
- viability, T/C (second compound 1 µM, first compound 0.0949 µM): 2.44%
- viability, T/C (second compound 1 µM, first compound 0.3 µM): 2.51%

SMILES: CC1(O)CCCC1n1c(=O)c(C(F)F)cc2cnc(NC3CCN(S(C)(=O)=O)CC3)nc21 (stereo unspecified) + CCn1c(-c2cc(N3CCN(C)CC3)cnc2C(C)OC)c2c3cc(ccc31)-c1csc(n1)CC(NC(=O)C1CC1C)C(=O)N1CCCC(N1)C(=O)OCC(C)(C)C2
- pIC50 (second compound 0.000949 µM): > 7.50
- pIC50 (second compound 0.003 µM): > 7.50
- pIC50 (second compound 0.00949 µM): > 7.50
- pIC50 (second compound 0.03 µM): > 7.50
- pIC50 (second compound 0.0949 µM): > 7.50
- pIC50 (second compound 0.3 µM): > 7.50
- viability, T/C (second compound 0.000949 µM, first compound 0.0316 µM): 33.9%
- viability, T/C (second compound 0.000949 µM, first compound 0.1 µM): 26.3%
- viability, T/C (second compound 0.000949 µM, first compound 0.316 µM): 17.7%
- viability, T/C (second compound 0.000949 µM, first compound 1 µM): 25.8%
- viability, T/C (second compound 0.000949 µM, first compound 3.16 µM): 25.5%
- viability, T/C (second compound 0.000949 µM, first compound 10 µM): 2.68%
- viability, T/C (second compound 0.003 µM, first compound 0.0316 µM): 31.6%
- viability, T/C (second compound 0.003 µM, first compound 0.1 µM): 18.7%
- viability, T/C (second compound 0.003 µM, first compound 0.316 µM): 15.9%
- viability, T/C (second compound 0.003 µM, first compound 1 µM): 19.1%
- viability, T/C (second compound 0.003 µM, first compound 3.16 µM): 24%
- viability, T/C (second compound 0.003 µM, first compound 10 µM): 1.43%
- viability, T/C (second compound 0.00949 µM, first compound 0.0316 µM): 32%
- viability, T/C (second compound 0.00949 µM, first compound 0.1 µM): 15.7%
- viability, T/C (second compound 0.00949 µM, first compound 0.316 µM): 13.9%
- viability, T/C (second compound 0.00949 µM, first compound 1 µM): 17.6%
- viability, T/C (second compound 0.00949 µM, first compound 3.16 µM): 17.9%
- viability, T/C (second compound 0.00949 µM, first compound 10 µM): 1.78%
- viability, T/C (second compound 0.03 µM, first compound 0.0316 µM): 20.8%
- viability, T/C (second compound 0.03 µM, first compound 0.1 µM): 18%
- viability, T/C (second compound 0.03 µM, first compound 0.316 µM): 15%
- viability, T/C (second compound 0.03 µM, first compound 1 µM): 17.1%
- viability, T/C (second compound 0.03 µM, first compound 3.16 µM): 14.5%
- viability, T/C (second compound 0.03 µM, first compound 10 µM): 2.47%
- viability, T/C (second compound 0.0949 µM, first compound 0.0316 µM): 17.3%
- viability, T/C (second compound 0.0949 µM, first compound 0.1 µM): 15.4%
- viability, T/C (second compound 0.0949 µM, first compound 0.316 µM): 13.4%
- viability, T/C (second compound 0.0949 µM, first compound 1 µM): 14.1%
- viability, T/C (second compound 0.0949 µM, first compound 3.16 µM): 12.1%
- viability, T/C (second compound 0.0949 µM, first compound 10 µM): 2.66%
- viability, T/C (second compound 0.3 µM, first compound 0.0316 µM): 18.7%
- viability, T/C (second compound 0.3 µM, first compound 0.1 µM): 14.8%
- viability, T/C (second compound 0.3 µM, first compound 0.316 µM): 15.1%
- viability, T/C (second compound 0.3 µM, first compound 1 µM): 12.8%
- viability, T/C (second compound 0.3 µM, first compound 3.16 µM): 11.8%
- viability, T/C (second compound 0.3 µM, first compound 10 µM): 2.94%

SMILES: CC(C)NCC(C(=O)N1CCN(c2ncnc3c2C(C)CC3O)CC1)c1ccc(Cl)cc1 (stereo unspecified) + C#Cc1c(F)ccc2cc(O)cc(-c3ncc4c(N5CC6CCC(C5)N6)nc(OCC56CCCN5CC(F)C6)nc4c3F)c12
- pIC50 (second compound 0.0316 µM): < 5.00
- pIC50 (second compound 0.1 µM): < 5.00
- pIC50 (second compound 0.316 µM): < 5.00
- pIC50 (second compound 1 µM): < 5.00
- pIC50 (second compound 3.16 µM): 6.28
- pIC50 (second compound 10 µM): > 7.50
- viability, T/C (second compound 0.0316 µM, first compound 0.0316 µM): 100%
- viability, T/C (second compound 0.0316 µM, first compound 0.1 µM): 133%
- viability, T/C (second compound 0.0316 µM, first compound 0.316 µM): 89.4%
- viability, T/C (second compound 0.0316 µM, first compound 1 µM): 90.5%
- viability, T/C (second compound 0.0316 µM, first compound 3.16 µM): 76%
- viability, T/C (second compound 0.0316 µM, first compound 10 µM): 74.2%
- viability, T/C (second compound 0.1 µM, first compound 0.0316 µM): 107%
- viability, T/C (second compound 0.1 µM, first compound 0.1 µM): 122%
- viability, T/C (second compound 0.1 µM, first compound 0.316 µM): 95.3%
- viability, T/C (second compound 0.1 µM, first compound 1 µM): 91%
- viability, T/C (second compound 0.1 µM, first compound 3.16 µM): 69.7%
- viability, T/C (second compound 0.1 µM, first compound 10 µM): 66.6%
- viability, T/C (second compound 0.316 µM, first compound 0.0316 µM): 122%
- viability, T/C (second compound 0.316 µM, first compound 0.1 µM): 131%
- viability, T/C (second compound 0.316 µM, first compound 0.316 µM): 99.7%
- viability, T/C (second compound 0.316 µM, first compound 1 µM): 84.4%
- viability, T/C (second compound 0.316 µM, first compound 3.16 µM): 70.2%
- viability, T/C (second compound 0.316 µM, first compound 10 µM): 55.7%
- viability, T/C (second compound 1 µM, first compound 0.0316 µM): 108%
- viability, T/C (second compound 1 µM, first compound 0.1 µM): 101%
- viability, T/C (second compound 1 µM, first compound 0.316 µM): 73.6%
- viability, T/C (second compound 1 µM, first compound 1 µM): 66.7%
- viability, T/C (second compound 1 µM, first compound 3.16 µM): 56.1%
- viability, T/C (second compound 1 µM, first compound 10 µM): 49%
- viability, T/C (second compound 3.16 µM, first compound 0.0316 µM): 68.6%
- viability, T/C (second compound 3.16 µM, first compound 0.1 µM): 69%
- viability, T/C (second compound 3.16 µM, first compound 0.316 µM): 51.6%
- viability, T/C (second compound 3.16 µM, first compound 1 µM): 44.9%
- viability, T/C (second compound 3.16 µM, first compound 3.16 µM): 37.9%
- viability, T/C (second compound 3.16 µM, first compound 10 µM): 32.6%
- viability, T/C (second compound 10 µM, first compound 0.0316 µM): 38.4%
- viability, T/C (second compound 10 µM, first compound 0.1 µM): 40.9%
- viability, T/C (second compound 10 µM, first compound 0.316 µM): 34.1%
- viability, T/C (second compound 10 µM, first compound 1 µM): 26.1%
- viability, T/C (second compound 10 µM, first compound 3.16 µM): 22.8%
- viability, T/C (second compound 10 µM, first compound 10 µM): 18.5%
